27 compounds from US6531598B1, “Naphthostyrils” (Hoffmann-La Roche Inc., priority 2001, dated 2003) can be followed below.

The target of one experiment is T1, human Cyclin E/CDK2 (Homo sapiens, UniProt P24941).
T1 construct: made in house; host or cells: insect cells
The experiment can be described thus: CDK2 FlashPlate Assay. Format: biochemical. The settings on record: inhibition of Rb phosphorylation, 33P-ATP, 25 minutes at room temperature. On the procedure: To determine inhibition of CDK2 activity, purified recombinant retinoblastoma (Rb) protein was coated on 96 well FlashPlates (New England Nuclear, Boston, Mass.). […] Recombinant active human Cyclin E/CDK2 complexes were partially purified from extracts of insect cells. […] Plates were incubated for 25 minutes at room temperature with shaking, then washed and counted in the Topcount scintillation counter (Packard Instrument Co., Downers Grove, Ill.). Dilutions of test compounds were tested in duplicate in each assay. The percent inhibition of Rb phosphorylation, which is a measure of the inhibition of CDK2 activity, was determined according to the following formula: [formula]
where “test compound” refers to the average counts per minute of the test duplicates, “nonspecific” refers to the average counts per minute when no Cyclin E/CDK2 was added, and “total” refers to the average counts per minute when no compound was added.

The subject of experiment [1] is RKO colon carcinoma cell line. The experiment can be described thus: Tetrazolium dye proliferation assay, RKO. Format: cell-based. The following applies: MTT, 5 days post addition of test compound, 500 cell per well. As for the experimental part: (§1) The cell lines used were MDA-MB435, a breast carcinoma dell line and RKO, a colon carcinoma cell line.
(§2) Teh estrogen receptor negative epithelial breast carcinoma line (MDA-MB435) was purchased from American Type Cell Culture Collection (ATCC; Rockville, Md.) and was grown in the medium recommended by ATCC. For analysis of the test compounds on growth of these cells, the cells were plated at 2000 cells per well in a 96-well tissue culture plate, and were incubated overnight at 37° C. with 5% CO2. The next day, the test compounds were dissolved in 100% dimethyl sulfoxide (DMSO) to yield a 10 mM stock solution. […] The compounds were then serially diluted in medium with 1.2% DMSO. One-fourth final volume of the diluted compounds was transferred to 96 well plates. Test compounds were assayed in duplicate. DMSO was added to a row of “control cells” such that the final concentration of DMSO in each well was 0.3%. Wells to which no cells were added served as the “blank.” Wells to which no inhibitor was added served as “no inhibitor control”. The plates were returned to the incubator, and 5 days post addition of test compound, were analyzed as described below.
(§3) 3-(4,5-Dimethylthiazole-2-yl)-2,5-diphenyl-2H-tetrazolium bromide (thiazolyl blue; MTT) was added to each well to yield a final concentration of 1 mglmL. The plates were then incubated at 37° C. for 3 hours. The plates were centrifuged at 1000 rpm for 5 minutes prior to aspiration of the MTT-containing medium. The MTT-containing medium was then removed and 100 μL 100% EtOH was added to each well to dissolve the resulting formazan metabolite. To ensure complete dissolution, plates were shaken for 15 minutes at room temperature. Absorbencies were read in a microliter plate reader (Molecular Dynamics) at a wavelength of 570 nm with a 650 nm reference. Percent inhibition was calculated by subtracting the absorbency of the blank (no cell) wells from all wells, then subtracting the division of the average absorbency of each test duplicate by the average of the controls from 1.00. Inhibitory concentrations (IC50) were determined from the linear regression of a plot of the logarithm of the concentration versus the percent inhibition.
The colon carcinoma line RKO was also obtained from the ATCC and was tested according to the same protocol provided above except that the cell line RKO was plated at 500 cell per well.

Experiment [2] concerns MDA-MB435 breast carcinoma cell line. The experiment is described as follows: Tetrazolium dye proliferation assay, MDA-MB435. Format: cell-based. The following applies: MTT, 5 days post addition of test compound, 2000 cells per well. As for the experimental part:
as §1, §2, §3

Where [3] appears, read: Homo sapiens, MDA-MB-435, 120 h.

The structures appear in SMILES notation. Structures can show the parent of a compound that is named as a salt.

In the case of `CC(=O)NCCNc1cc(-c2ccc[nH]2)c2c3c(ccc(F)c13)NC2=O` [Example 29, N-[2-[6-Fluoro-2oxo-3-(1H-pyrrol-2-yl)-1,2-dihydro-benzo[cd]indol-5-ylamino]-ethyl]-acetamide], the IC50 against human Cyclin E/CDK2 was no more than 10 µM.
On to `CC(C)(N)CNc1cc(-c2ccc[nH]2)c2c3c(ccc(F)c13)NC2=O` [Example 22, 5-(2-Amino-2-methyl-propylamino)-6-fluoro-3-(1H-pyrrol-2-yl)-1H-benzo[cd]indol-2-one], for which the IC50 in experiment [1] (Colon carcinoma cell, 120 h) was no more than 10 µM; against human Cyclin E/CDK2 it was no more than 10 µM; in experiment [2] (setting [3]) it was no more than 10 µM.
As to `O=C1Nc2ccc(F)c3c(N4CCCC(CO)C4)cc(-c4ccc[nH]4)c1c23` (centres unmarked) [Example 34, 6-Fluoro-5-(3-hydroxymethyl-piperidin-1-yl)-3-(1H-pyrrol-2-yl)-1H-benzo[cd]indol-2one], the IC50 in experiment [1] (Colon carcinoma cell, 120 h) was no more than 10 µM; in experiment [2] (setting [3]) it was no more than 10 µM.
For `NCCOc1cc(-c2ccc[nH]2)c2c3c(ccc(F)c13)NC2=O` [Example 20, 5-(2-Amino-ethoxy)-6-fluoro-3-(1H-pyrrol-2-yl)-1H-benzo[cd]indol-2-one methanesulfonic acid salt], the IC50 against human Cyclin E/CDK2 is no more than 10 µM.
Turning to `NCCSc1cc(-c2ccc[nH]2)c2c3c(ccc(F)c13)NC2=O` [Example 40, 5-(2-Amino-ethylsulfanyl)-6-fluoro-3-(1H-pyrrol-2-yl)-1H-benzo[cd]indol-2-one], the IC50 in experiment [1] (Colon carcinoma cell, 120 h) is no more than 10 µM; against human Cyclin E/CDK2 it was no more than 10 µM; in experiment [2] (setting [3]) it was no more than 10 µM.
With `O=C1Nc2ccc(F)c3c(S(=O)(=O)CCO)cc(-c4ccc[nH]4)c1c23` [Example 38, 6-Fluoro-5-(2-hydroxy-ethanesulfonyl)-3-(1H-pyrrol-2-yl)-1H-benzo[cd]indol-2-one], the IC50 in experiment [1] (Colon carcinoma cell, 120 h) is no more than 10 µM; against human Cyclin E/CDK2 it was no more than 10 µM; in experiment [2] (setting [3]), no more than 10 µM.
In the case of `O=C1Nc2ccc(F)c3c(N4CC[C@@H](O)C4)cc(-c4ccc[nH]4)c1c23` [Example 32], the IC50 is no more than 10 µM in experiment [1] (Colon carcinoma cell, 120 h); no more than 10 µM against human Cyclin E/CDK2; no more than 10 µM in experiment [2] (setting [3]).
Turning to `O=C1Nc2ccc(F)c3c2C1=C(c1ccc[nH]1)CC3` [Example 6, 6-fluoro-3-(1H-pyrrol-2-yl)-4,5-dihydro-1H-benzo[cd]indol-2-one], the IC50 in experiment [1] (Colon carcinoma cell, 120 h) was no more than 10 µM; on human Cyclin E/CDK2, no more than 10 µM; in experiment [2] (setting [3]), no more than 10 µM.
Consider `NCC[S+]([O-])c1cc(-c2ccc[nH]2)c2c3c(ccc(F)c13)NC2=O` (centres unmarked) [Example 43, 5-(2-Amino-ethanesulfinyl)-6-fluoro-3-(1H-pyrrol-2-yl)-1H-benzo[cd]indol-2-one hydrochloride salt], for which the IC50 in experiment [1] and in experiment [2] was no more than 10 µM in each case.
For the compound `O=C1Nc2ccc(F)c3c(N4CCNC4=O)cc(-c4ccc[nH]4)c1c23` [Example 28, 6-Fluoro-5-(2-oxo-imidazolidin-1-yl)-3-(1H-pyrrol-2-yl)-1H-benzo[cd]indol-2-one], at human Cyclin E/CDK2, the IC50 is no more than 10 µM.
For `NCCCNc1cc(-c2ccc[nH]2)c2c3c(ccc(F)c13)NC2=O` [Example 21, 5-(3-Amino-propylamino)-6-fluoro-3-(1H-pyrrol-2-yl)-1H-benzo[cd]indol-2-one acetic acid salt], the IC50 was no more than 10 µM in experiment [1] (Colon carcinoma cell, 120 h); no more than 10 µM against human Cyclin E/CDK2; no more than 10 µM in experiment [2] (setting [3]).
Compound `CCc1cc(-c2ccc[nH]2)c2c3c(ccc(F)c13)NC2=O` [Example 27, 5-Ethyl-6-fluoro-3-(1H-pyrrol-2-yl)-1H-benzo[cd]indol-2-one] showed an IC50 against human Cyclin E/CDK2 of no more than 10 µM.
On the same count and under the same terms, for `CCN(CC)CCNc1cc(-c2ccc[nH]2)c2c3c(ccc(F)c13)NC2=O` [Example 31, 5-(2-Diethylamino-ethylamino)-6-fluoro-3-(1H-pyrrol-2-yl)-1H-benzo[cd]indol-2-one] the value was no more than 10 µM.
Consider `O=C1Nc2ccc(F)c3c(N4CCCC(O)C4)cc(-c4ccc[nH]4)c1c23` (centres unmarked) [Example 35, 6-Fluoro-5-(3-hydroxy-piperidin-1-yl)-3-(1H-pyrrol-2-yl)-1H-benzo[cd]indol-2-one], for which the IC50 in experiment [1] (Colon carcinoma cell, 120 h) is no more than 10 µM; in experiment [2] (setting [3]), no more than 10 µM.
Consider `O=C1Nc2ccc(F)c3c(SCCO)cc(-c4ccc[nH]4)c1c23` [Example 36, 6-Fluoro-5-(2-hydroxyethylsulfanyl)-3-(1H-pyrrol-2-yl)-1H-benzo[cd]indol-2-one], for which the IC50 is no more than 10 µM in experiment [1] (Colon carcinoma cell, 120 h); no more than 10 µM on human Cyclin E/CDK2; no more than 10 µM in experiment [2] (setting [3]).
Take `O=C1Nc2ccc(F)c3ccc(-c4ccc[nH]4)c1c23` [Example 7, 6-Fluoro-3-(1H-pyrrol-2-yl)-1H-benzo[cd]indol-2-one]: the IC50 was no more than 10 µM in experiment [1] (Colon carcinoma cell, 120 h); no more than 10 µM against human Cyclin E/CDK2; no more than 10 µM in experiment [2] (setting [3]).
In the case of `Cc1c[nH]c(-c2cc(SCCN)c3c(F)ccc4c3c2C(=O)N4)c1C` [Example 50, 5-(2-Amino-ethylsulfanyl)-6-fluoro-3-(3,4-dimethyl-1H-pyrrol-2-yl)-1H-benzo[cd]indol-2-one trifluoroacetic acid salt], the IC50 in experiment [1] (Colon carcinoma cell, 120 h) was no more than 10 µM; against human Cyclin E/CDK2, no more than 10 µM; in experiment [2] (setting [3]), no more than 10 µM.
With `COc1cc(-c2ccc[nH]2)c2c3c(ccc(F)c13)NC2=O` [Example 13, 6-Fluoro-5-methoxy-3-(1H-pyrrol-2-yl)-1H-benzo[cd]indol-2-one], the IC50 was no more than 10 µM in experiment [1] (Colon carcinoma cell, 120 h); no more than 10 µM at human Cyclin E/CDK2; no more than 10 µM in experiment [2] (setting [3]).
With `NCC[S+]([O-])c1cc(-c2ccc[nH]2)c2c3c(ccc(F)c13)NC2=O` (centres unmarked) [Example 42, 5-(2-Amino-ethanesulfinyl)-6-fluoro-3-(1H-pyrrol-2-yl)-1H-benzo[cd]indol-2-one], the IC50 is no more than 10 µM in experiment [1] (Colon carcinoma cell, 120 h) and no more than 10 µM in experiment [2] (setting [3]).
Consider `O=C1Nc2ccc(F)c3c(N4CCOCC4)cc(-c4ccc[nH]4)c1c23` [Example 23, 6-Fluoro-5-morpholin-4-yl-3-(1H-pyrrol-2-yl)-1H-benzo[cd]indol-2-one], for which the IC50 is no more than 10 µM in experiment [1] (Colon carcinoma cell, 120 h); no more than 10 µM against human Cyclin E/CDK2; no more than 10 µM in experiment [2] (setting [3]).
In experiment [1] (Colon carcinoma cell, 120 h), `O=C1Nc2ccc(F)c3c([S+]([O-])CCO)cc(-c4ccc[nH]4)c1c23` (centres unmarked) [Example 37, 6-Fluoro-5-(2-hydroxy-ethanesulfinyl)-3-(1H-pyrrol-2-yl)-1H-benzo[cd]indol-2-one] displayed an IC50 of no more than 10 µM.
Take `NCCS(=O)(=O)c1cc(-c2ccc[nH]2)c2c3c(ccc(F)c13)NC2=O` [Example 44, 5-(2-Amino-ethanesulfonyl)-6-fluoro-3-(1H-pyrrol-2-yl)-1H-benzo[cd]indol-2-one]: the IC50 in experiment [1] (Colon carcinoma cell, 120 h) is no more than 10 µM; against human Cyclin E/CDK2, no more than 10 µM; in experiment [2] (setting [3]), no more than 10 µM.
Consider `Cc1cc(-c2ccc[nH]2)c2c3c(ccc(F)c13)NC2=O` [Example 25, 6-Fluoro-5-methyl-3-(1H-pyrrol-2-yl)-1H-benzo[cd]indol-2-one], for which, at human Cyclin E/CDK2, the IC50 is no more than 10 µM.
Still for that read-out and setting: next, `CCC(C)c1cc(-c2ccc[nH]2)c2c3c(ccc(F)c13)NC2=O` (racemic) [Example 26, (rac)-5-sec-Butyl-6-fluoro-3-(1H-pyrrol-2-yl)-1H-benzo[cd]indol-2-one]: no more than 10 µM; `CCOc1cc(-c2ccc[nH]2)c2c3c(ccc(F)c13)NC2=O` [Example 14, 5-Ethoxy-6-fluoro-3-(1H-pyrrol-2-yl)-1H-benzo[cd]indol-2-one]: no more than 10 µM.
Still for that read-out and setting: for `O=C1Nc2ccc(F)c3c(OCCCO)cc(-c4ccc[nH]4)c1c23` [Example 17, 6-Fluoro-5-(3-hydroxy-propoxy)-3-(1H-pyrrol-2-yl)-1H-benzo[cd]indol-2-one] the value was no more than 10 µM.
Consider `NCCOc1cc(-c2ccc[nH]2)c2c3c(ccc(F)c13)NC2=O` [Example 19, 5-(2-Amino-ethoxy)-6-fluoro-3-(1H-pyrrol-2-yl)-1H-benzo[cd]indol-2-one], for which the half-maximal inhibitory concentration (IC50) was no more than 10 µM in experiment [1] (Colon carcinoma cell, 120 h) and no more than 10 µM in experiment [2] (setting [3]).
